Drawing on PMC11301636, “Supramolecular delivery of dinuclear ruthenium and osmium MCU inhibitors” (Inorganic Chemistry Frontiers, 2024), this text covers IC50 for 1 substance.

The target in assay [1] is T1, mitochondrial calcium uniporter (MCU) (Homo sapiens, UniProt Q8NE86).
T1 sequence (Q8NE86 51-351): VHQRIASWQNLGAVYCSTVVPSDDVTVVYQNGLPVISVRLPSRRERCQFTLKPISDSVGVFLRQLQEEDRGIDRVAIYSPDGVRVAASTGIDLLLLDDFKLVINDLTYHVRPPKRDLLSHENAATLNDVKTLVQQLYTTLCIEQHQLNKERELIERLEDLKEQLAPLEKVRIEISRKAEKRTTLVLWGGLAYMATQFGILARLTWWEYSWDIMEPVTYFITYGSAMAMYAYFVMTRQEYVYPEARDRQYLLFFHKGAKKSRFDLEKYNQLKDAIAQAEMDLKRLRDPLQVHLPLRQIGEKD
Nature of the assay: mCa2+ uptake inhibition in digitonin-permeabilized HEK293T cells (Calcium Green 5N). The class given is cell-based.

Assay [2] concerns the target T1, mitochondrial calcium uniporter (MCU). Description: mCa2+ uptake inhibition in digitonin-permeabilized HEK293T cells. The assay is classed as cell-based.

For orientation: IC50 means the concentration needed to halve the response being measured. Take Os245: the IC50 in assay [1] came to 5.7 ± 0.3 nM; in assay [2], 90.9 ± 1.3 nM.
